Measured values from the NIST ThermoML archive (doi:10.1016/j.tca.2018.01.023).
Values joined by “and” are separate entries in the source; they are usually repeats but may differ in a detail not shown here. Equal values may be shown once.

Assay: molar heat capacity at constant pressure
Conditions: 101.33 kPa, Crystal, Small sample (50 mg) DSC

[Ca+2].[O]=[Mo](=[O])([O-])[O-] [calcium molybdate(VI)]
Conditions | molar heat capacity at constant pressure
335 K | 120.2 J/K/mol
335.3 K | 120.2 J/K/mol
335.4 K | 120.3 J/K/mol
336.3 K | 120.3 J/K/mol
336.4 K | 120.4 J/K/mol
337.3 K | 120.5 J/K/mol
337.4 K | 120.6 J/K/mol
338.3 K | 120.6 J/K/mol
338.4 K | 120.7 J/K/mol
339.3 K | 120.7 J/K/mol
339.4 K | 120.9 J/K/mol
340 K | 120.9 J/K/mol
340.3 K | 120.8 J/K/mol
340.4 K | 121 J/K/mol
341.3 K | 121 J/K/mol
341.4 K | 121.1 J/K/mol
342.3 K | 121.2 J/K/mol
342.4 K | 121.2 J/K/mol
343.3 K | 121.4 J/K/mol
343.4 K | 121.4 J/K/mol
344.3 K | 121.5 J/K/mol
344.4 K | 121.5 J/K/mol
345 K | 121.5 J/K/mol
345.3 K | 121.7 J/K/mol
345.4 K | 121.6 J/K/mol
346.3 K | 121.8 J/K/mol
346.4 K | 121.8 J/K/mol
347.3 K | 121.9 J/K/mol
347.4 K | 122 J/K/mol
348.3 K | 122 J/K/mol
348.4 K | 122.3 J/K/mol
349.3 K | 122.1 J/K/mol
349.4 K | 122.6 J/K/mol
350 K | 122.2 J/K/mol
350.3 K | 122.2 J/K/mol
350.4 K | 122.6 J/K/mol
351.3 K | 122.3 J/K/mol
351.4 K | 122.6 J/K/mol
352.3 K | 122.4 J/K/mol
352.4 K | 122.5 J/K/mol
353.3 K | 122.5 J/K/mol
353.4 K | 122.5 J/K/mol
354.3 K | 122.7 J/K/mol
354.4 K | 122.6 J/K/mol
355 K | 122.8 J/K/mol
355.3 K | 122.8 J/K/mol
355.4 K | 122.7 J/K/mol
356.3 K | 122.9 J/K/mol
356.4 K | 123 J/K/mol
357.3 K | 123.1 J/K/mol
357.4 K | 123.2 J/K/mol
358.3 K | 123.3 J/K/mol
358.4 K | 123.4 J/K/mol
359.3 K | 123.4 J/K/mol
359.4 K | 123.5 J/K/mol
360 K | 123.4 J/K/mol
360.3 K | 123.6 J/K/mol
360.4 K | 123.6 J/K/mol
361.4 K | 123.7 J/K/mol
362.4 K | 123.8 J/K/mol
363.4 K | 123.9 J/K/mol
364.4 K | 124.1 J/K/mol and 124 J/K/mol
365 K | 124 J/K/mol
365.4 K | 124.2 J/K/mol and 124.1 J/K/mol
366.4 K | 124.3 J/K/mol and 124.2 J/K/mol
367.4 K | 124.4 J/K/mol and 124.3 J/K/mol
368.4 K | 124.5 J/K/mol and 124.4 J/K/mol
369.4 K | 124.6 J/K/mol
370 K | 124.6 J/K/mol
370.4 K | 124.7 J/K/mol
371.4 K | 124.8 J/K/mol and 124.9 J/K/mol
372.4 K | 125 J/K/mol
373.4 K | 125.1 J/K/mol
374.4 K | 125.2 J/K/mol
375 K | 125.2 J/K/mol
375.4 K | 125.3 J/K/mol
376.4 K | 125.4 J/K/mol
377.4 K | 125.6 J/K/mol and 125.5 J/K/mol
378.4 K | 125.7 J/K/mol and 125.5 J/K/mol
379.4 K | 125.9 J/K/mol and 125.6 J/K/mol
380 K | 125.8 J/K/mol
380.4 K | 126 J/K/mol and 125.7 J/K/mol
381.4 K | 126.1 J/K/mol and 125.8 J/K/mol
382.4 K | 126.2 J/K/mol and 125.9 J/K/mol
383.4 K | 126.3 J/K/mol and 126 J/K/mol
384.4 K | 126.3 J/K/mol and 126.2 J/K/mol
385 K | 126.3 J/K/mol
385.4 K | 126.4 J/K/mol and 126.3 J/K/mol
386.4 K | 126.4 J/K/mol
387.4 K | 126.5 J/K/mol
388.4 K | 126.6 J/K/mol and 126.7 J/K/mol
389.4 K | 126.8 J/K/mol
390 K | 126.8 J/K/mol
390.4 K | 126.9 J/K/mol and 126.8 J/K/mol
391.4 K | 127.1 J/K/mol
391.5 K | 126.9 J/K/mol
392.4 K | 127.2 J/K/mol
392.5 K | 127 J/K/mol
393.4 K | 127.3 J/K/mol
393.5 K | 127.1 J/K/mol
394.4 K | 127.4 J/K/mol
394.5 K | 127.2 J/K/mol
395 K | 127.4 J/K/mol
395.4 K | 127.5 J/K/mol
